Assay results from US20050032873A1, “3-Amino chroman and 2-amino tetralin derivatives” (Wyeth, priority 2003, published 2005).
pEC50, pIC50, pKi: −log10 of the molar value. Like-named read-outs stand apart in the source and are kept apart here.

Columns and labels:
[1] = biological target: T1, serotonin transporter (Rattus norvegicus, UniProt P31652); assay: 5-HT transporter affinity: displacement of 3H-paroxetine from male rat cortical membranes; assay type: binding; conditions: displacement of 3H-paroxetine; male rat cortical membranes; read-out: 5-HT Transporter Affinity Ki
T1 construct: displace ^3H-paroxetine from male rat cortical membranes; from tissue; host or cells: male rat cortical membranes
T1 sequence (P31652 whole entry): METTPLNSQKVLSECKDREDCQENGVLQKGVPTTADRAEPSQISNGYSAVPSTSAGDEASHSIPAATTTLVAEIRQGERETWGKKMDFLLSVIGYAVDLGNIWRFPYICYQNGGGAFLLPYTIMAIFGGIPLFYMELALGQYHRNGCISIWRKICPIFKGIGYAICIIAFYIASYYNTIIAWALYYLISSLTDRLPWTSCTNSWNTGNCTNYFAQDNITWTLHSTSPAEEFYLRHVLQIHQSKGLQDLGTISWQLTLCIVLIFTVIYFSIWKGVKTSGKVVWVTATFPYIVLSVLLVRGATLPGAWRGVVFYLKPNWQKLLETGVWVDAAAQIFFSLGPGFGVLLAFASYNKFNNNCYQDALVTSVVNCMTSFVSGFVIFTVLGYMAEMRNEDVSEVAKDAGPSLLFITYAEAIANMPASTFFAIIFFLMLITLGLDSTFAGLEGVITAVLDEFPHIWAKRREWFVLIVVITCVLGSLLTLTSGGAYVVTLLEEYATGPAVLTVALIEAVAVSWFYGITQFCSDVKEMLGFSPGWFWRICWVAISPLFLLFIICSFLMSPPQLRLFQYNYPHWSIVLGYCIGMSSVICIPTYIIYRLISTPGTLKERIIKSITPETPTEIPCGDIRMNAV

[2] = biological target: T2, cloned human 5-HT1A receptors (Homo sapiens, UniProt P08908); assay: 35S-GTPγS binding assay, 5-HT1A function; assay type: biochemical; conditions: for pIC50: antagonist potency, reversal of 8-OH-DPAT, read-out: 5-HT1A Function GTPγS IC50; for pEC50: agonist potency
T2 construct: expressed in transfected cells
T2 sequence (P08908 1-422): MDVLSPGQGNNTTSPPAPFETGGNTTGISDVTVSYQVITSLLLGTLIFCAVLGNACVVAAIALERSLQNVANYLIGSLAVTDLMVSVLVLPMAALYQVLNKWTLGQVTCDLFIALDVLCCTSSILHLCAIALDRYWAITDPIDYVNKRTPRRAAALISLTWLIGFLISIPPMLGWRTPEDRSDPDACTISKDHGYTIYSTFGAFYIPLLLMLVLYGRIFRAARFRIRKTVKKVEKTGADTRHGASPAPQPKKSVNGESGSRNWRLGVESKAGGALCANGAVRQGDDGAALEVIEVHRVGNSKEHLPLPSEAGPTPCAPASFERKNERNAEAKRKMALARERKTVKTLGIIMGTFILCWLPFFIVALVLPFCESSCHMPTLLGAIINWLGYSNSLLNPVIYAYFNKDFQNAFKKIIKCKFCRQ

[3] = biological target: T3, 5-HT1A receptor (Homo sapiens, UniProt P08908); assay: cAMP accumulation assay, 5-HT1A function; assay type: cell-based; conditions: for pIC50: cells marked IC50 (antagonist), read-out: 5-HT1A Function cAMP IC50; for 5-HT1A Function cAMP (Emax) / Emax: in brackets after EC50 or IC50; for Emax: read-out: 5-HT1A Function cAMP (Emax); for pEC50: cells marked EC50 (agonist)
T3 sequence (P08908 1-422): T2 sequence (P08908 1-422)

[4] = biological target: T3, 5-HT1A receptor; assay: 5-HT1A receptor affinity: displacement of [3H] 8-OH-DPAT; assay type: binding; parameters: expressed in transfected cells; conditions: displacement of [3H] 8-OH-DPAT; CHO cells stably transfected with human 5-HT1A receptors; read-out: 5-HT1A Receptor Affinity Ki
[5] = maximum inhibitory effect, in brackets after IC50
[6] = maximum inhibitory effect, in brackets after IC50, read-out: 5-HT1A Function GTPγS (Imax)
[7] = maximum stimulatory effect, in brackets after EC50, read-out: 5-HT1A Function GTPγS (Emax)

pIC50 [3] | Emax [3] [%] | Compound | pKi [1] | pIC50 [2] | 5-HT1A Function GTPγS (Imax) [2, 5] [%] | 5-HT1A Function cAMP (Emax) [3] [%] | pKi [4] | Emax [2, 6] [%] | pEC50 [2] | Emax [2, 7] [%] | pEC50 [3] | 5-HT1A Function GTPγS (Emax) ([2]; maximum stimulatory effect, in brackets after EC50) [%]
6.50 |  | CCCN(C(C)CCc1c[nH]c2ccc(C#N)cc12)C1COc2c(F)ccc(C(N)=O)c2C1 (single isomer, unassigned) [Compound 13c, 3-[[3-(5-cyano-1H-indol-3-yl)-1-methylpropyl](propyl)amino]-8-fluoro-3,4-dihydro-2H-chromene-5-carboxamide] | 6.93 | 5.60 | 92 | 0 | 6.92 |  |  |  |  | 
5.51 | 0 | CC(CCc1c[nH]c2c(F)cc(F)cc12)N(CC1CC1)C1COc2c(F)ccc(C(N)=O)c2C1 (single isomer, unassigned) [Compound 154c, 3-{(cyclopropylmethyl)[3-(5,7-difluoro-1H-indol-3-yl)-1-methylpropyl]amino}-8-fluorochromane-5-carboxamide] | 7.17 | 5.70 | 100 |  | 7.60 |  |  |  |  | 
6.97 | 0 | CC(Cc1c[nH]c2ccc(F)cc12)CN(CC1CC1)[C@H]1COc2c(F)ccc(C(N)=O)c2C1 (single isomer, unassigned) [Compound 155a] | 7.31 | 6.82 |  |  | 8.38 | 100 |  |  |  | 
 |  | CCCN(CCCc1c[nH]c2ccc(F)cc12)C1COc2c(F)ccc(C(N)=O)c2C1 (single isomer, unassigned; (+)) [Compound 2b, (+)-8-fluoro-3-[[3-(5-fluoro-1H-indol-3-yl)propyl](propyl)amino]-3,4-dihydro-2H-chromene-5-carboxamide] | 8.41 |  |  | 97 | 8.66 |  | 7.44 | 80 | 7.70 | 
 |  | CCN(CCCc1c[nH]c2ccc(F)cc12)C1COc2c(F)ccc(C(N)=O)c2C1 (single isomer, unassigned; (+)) [Compound 3b, (+)-3-{ethyl[3-(5-fluoro-1H-indol-3-yl)propyl]amino}-8-fluoro-3,4-dihydro-2H-chromene-5-carboxamide] | 8.35 | 6.18 | 35.8 | 90.5 | 7.81 |  |  |  | 7.50 | 
6.83 | 0 | CCCN(C(C)CCCc1c[nH]c2ccc(F)cc12)C1COc2c(F)ccc(C(N)=O)c2C1 (single isomer, unassigned; (+)) [Compound 14a, (+)-8-fluoro-3-[[4-(5-fluoro-1H-indol-3-yl)-1-methylbutyl](propyl)amino]chromane-5-carboxamide] | 7.87 | 5.66 | 59 |  | 7.38 |  |  |  |  | 
 |  | CC(CCc1c[nH]c2ccc(F)cc12)N(CC1CC1)C1COc2c(F)ccc(C(N)=O)c2C1 (single isomer, unassigned; (+)) [Compound 15b, (+)-3-{(cyclopropylmethyl)[3-(5-fluoro-1H-indol-3-yl)-1-methylpropyl]amino}-8-fluorochromane-5-carboxamide] | 7.33 |  |  | 73 | 7.50 |  | 6.97 | 32 | 7.49 | 
 |  | CCN(C(C)CCc1c[nH]c2ccc(F)cc12)C1COc2c(F)ccc(C(N)=O)c2C1 (single isomer, unassigned; (+)) [Compound 16b, (+)-3-{ethyl[3-(5-fluoro-1H-indol-3-yl)-1-methylpropyl]amino}-8-fluorochromane-5-carboxamide] | 9.02 |  |  | 64.5 | 6.89 |  | 6.09 | 20 | 6.79 | 
 |  | CCCN(CCCc1c[nH]c2ccc(F)cc12)C1CCc2c(F)ccc(OC)c2C1 (single isomer, unassigned; (+)) [Compound 51a, (+)-5-fluoro-N-[3-(5-fluoro-1H-indol-3-yl)propyl]-8-methoxy-N-propyl-1,2,3,4-tetrahydro-2-naphthalenamine] | 8.94 |  |  | 100 | 8.77 |  | 7.89 | 69 | 7.78 | 
 |  | NC(=O)c1cccc2c1CC(N(CCCc1c[nH]c3ccc(F)cc13)C1CCC1)CO2 (single isomer, unassigned; (+)) [Compound 134b, (+)-3-{cyclobutyl[3-(5-fluoro-1H-indol-3-yl)propyl]amino}chromane-5-carboxamide] | 8.14 |  |  | 66.5 | 7.53 |  | 6.24 |  | 7.35 | 71
7.19 | 0 | NC(=O)c1ccc(F)c2c1CC(N(CC1CCc3[nH]c4ccc(F)cc4c3C1)C1CCC1)CO2 (single isomer, unassigned; (+)) [Compound 174b, (+)-3-{cyclobutyl[(6-fluoro-2,3,4,9-tetrahydro-1H-carbazol-3-yl)methyl]amino}-8-fluorochromane-5-carboxamide] | 6.72 | 5.84 | 67 |  | 9.07 |  |  |  |  | 
6.22 |  | NC(=O)c1ccc(F)c2c1CC(N(CC1CCc3[nH]c4ccc(F)cc4c3C1)C1CCC1)CO2 (single isomer, unassigned; (+)) [Compound 174c, (+)-3-{cyclobutyl[(6-fluoro-2,3,4,9-tetrahydro-1H-carbazol-3-yl)methyl]amino}-8-fluorochromane-5-carboxamide] | 5.96 |  |  | 0 | 6.73 |  | 6.01 | 55 |  | 
6.17 |  | CCN(CC1CCc2[nH]c3ccc(F)cc3c2C1)[C@H]1COc2c(F)ccc(C(N)=O)c2C1 (single isomer, unassigned; (+)) [Compound 176b] | 6.78 | 6.08 | 88 | 0 | 7.61 |  |  |  |  | 

Compound | pIC50 [3] | Emax [3] [%] | pKi [1] | pIC50 [2] | 5-HT1A Function GTPγS (Imax) [2, 5] [%] | 5-HT1A Function cAMP (Emax) [3] [%] | pKi [4] | Emax [2, 6] [%] | pEC50 [2] | Emax [2, 7] [%] | pEC50 [3] | 5-HT1A Function GTPγS (Emax) ([2]; maximum stimulatory effect, in brackets after EC50) [%]
NC(=O)c1ccc(F)c2c1CC(NCCCc1c[nH]c3ccc(F)cc13)CO2 (single isomer, unassigned; (+)) [Compound 1a, (+)-8-fluoro-3-{[3-(5-fluoro-1H-indol-3-yl)propyl]amino}chromane-5-carboxamide] |  | 84.5 | 7.58 |  |  |  | 7.33 |  | 6.00 | 87 | 7.02 | 
NC(=O)c1ccc(F)c2c1CC(N(CCCc1c[nH]c3c(F)cc(F)cc13)C1CCC1)CO2 (single isomer, unassigned; (+)) [Compound 9b, (+)-3-{cyclobutyl[3-(5,7-difluoro-1H-indol-3-yl)propyl]amino}-8-fluorochromane-5-carboxamide] | 6.71 |  | 7.92 | 5.22 | 74 | 0 | 7.16 |  |  |  |  | 
NC(=O)c1ccc(F)c2c1C[C@@H](NCC1CCc3[nH]c4ccc(F)cc4c3C1)CO2 (single isomer, unassigned; (+)) [Compound 175b] | 5.38 |  | 7.32 | 6.76 | 55 | 0 | 7.50 |  |  |  |  | 
CCCN(CC1CCc2[nH]c3ccc(F)cc3c2C1)[C@H]1COc2c(F)ccc(C(N)=O)c2C1 (single isomer, unassigned; (+)) [Compound 177b] | 7.44 |  | 6.74 | 6.74 | 74 | 0 | 8.13 |  |  |  |  | 
NC(=O)c1ccc(F)c2c1C[C@@H](N(CC1CC1)CC1CCc3[nH]c4ccc(F)cc4c3C1)CO2 (single isomer, unassigned; (+)) [Compound 178b] | 6.65 |  | 6.94 | 6.21 | 99 | 0 | 8.02 |  |  |  |  | 
CCCN(CCCc1c[nH]c2ccc(F)cc12)C1COc2c(F)ccc(C(N)=O)c2C1 (single isomer, unassigned; (-)) [Compound 2a, (−)-8-fluoro-3-[[3-(5-fluoro-1H-indol-3-yl)propyl](propyl)amino]-3,4-dihydro-2H-chromene-5-carboxamide] |  | 77.5 | 8.07 | 6.39 |  |  | 8.83 | 77.4 |  |  | 7.73 | 
CCN(CCCc1c[nH]c2ccc(F)cc12)C1COc2c(F)ccc(C(N)=O)c2C1 (single isomer, unassigned; (-)) [Compound 3a, (−)-3-{ethyl[3-(5-fluoro-1H-indol-3-yl)propyl]amino}-8-fluoro-3,4-dihydro-2H-chromene-5-carboxamide] | 6.87 |  | 8.30 | 5.89 | 79 | 0 | 7.46 |  |  |  |  | 
